Common to all, as to assay type: cell-based
One test has as its system IL-5 production. The test can be described thus: IL-5 production inhibiting test in OVA-stimulated spleen cells of immunised mouse (ELISA). The conditions noted are these: 72 h, spleen cells of OVA-immunised BALB/c-mouse, OVA 0.5 mg/ml, 3 days. The protocol: (§1) Example 146: IL-4 and IL-5 production inhibiting test
(§2) A 6-weeks-old BALB/c-mouse (Nippon Charles River) was bred preparatively for 1 week and given at the day 0 and day 14 intraperitoneal injection of 100 µl PBS to give immunity which PBS contained 0.1 mg/ml of Ovalbumin(OVA) and 40 mg/ml of aluminum hydroxide. At the day 21 the spleen was taken out from the mouse. The spleen was dissected with a pincette in cooled PBS, passed through a mesh and subjected to centrifugation at 4 °C at 1,500 rpm for 5 minutes. The cells was added with 5 ml of 0.2% NaCI to destroy erythrocytes, and then was made isotonic by adding 5 ml of 1.6% of NaCl. After centrifugation at 4 °C, 1,500 rpm for 5 minutes, the cells were washed twice with 10 ml ofRPMI1640 culture medium. The obtained spleen cells were suspended in cRPMI1640 medium, and the number of the cells was measured by Tuerk dying. After being adjusted to 1 × 10^7 cells/ml, the cells were planted in 100 µl/well on a 96-well plate (FALCON). The cells were cultured at 37 °C under 5% CO2 atmosphere for about 4 hours. OVA was prepared to 10 mg/ml with cRPMI1640 culture medium and subjected to sterile filtration. The 10 mg/ml OVA was diluted with cRPMI1640 culture medium to give 1 mg/ml OVA. A compound to be tested which was dissolved in DMSO in at 1,000-fold concentration was diluted up to 500-fold with cRPMI1640 culture medium containing 1 mg/ml OVA and added in 100 µl/well to the cells which had been planted on the previously mentioned 96-well plate (final concentration of OVA: 0.5 mg/ml). As the controls, the solutions were made by diluting DMSO of the same volume as with the test compounds with cRPMI1640 culture medium containing 1 mg/ml OVA, and they were added to the cells. These cells were cultured at 37 °C under 5%CO2 atmosphere for 3 days. IL-4 and IL-5 in the culture supernatants after 3 days were quantitatively determined by ELISA method. IL-4 and IL-5 were quantitatively determined using IL-4 Development Kit (Genzyme Techne) and mouse IL-5 MiniKit (ENDOGEN), respectively. The production inhibiting rates of each tested compound against IL-4 are shown in Table 22, those against IL-5 in Table 23.

For another test, the system named is TNF-α production. The test can be described thus: TNF-α production inhibiting test using human PBMC (LPS stimulus, ELISA). Conditions: LPS 10 ng/ml, 16 hours, ELISA of culture supernatants. The protocol: Example 145: TNF-α production inhibiting test using human PBMC (peripheral blood mononuclear cells)
Preparation of human PBMC
The blood of a healthy person was taken with a vacuum blood-collecting tube (Nipro neotube) and diluted up to two-fold with physiological saline (Otsuka Pharmaceuticals). To the diluted blood was added 6% dextran T-500 (prepared after dissolution in physiological saline (Otsuka Pharmaceuticals) and sterilization with an autoclave) so as to make a final concentration of 1%. The solution was subjected to tumble mixing and allowed to stand at room temperature for 30 minutes to precipitate the erythrocytes. The supernatant was collected and subjected to centrifugation at 20 °C and at 1,500 rpm for 10 minutes. The cells were suspended in 3 ml of RPMI1640 culture medium (Asahi Technogllas) and overlaid on the solution surface of 3 ml Lymphoprep (NYCOMED). Further, with 1.5 ml of RPMI1640 culture medium being added to the tube which had contained the cell suspension liquid, the cells attached to the tube, which had remained uncollected, were suspended for collection and overlaid on the Lymphoprep previously mentioned. This operation was repeated again. After centrifugation at 20 °C and at 2,000 rpm for 30 minutes, there was collected a fraction of peripheral blood mononuclear cells present in the boundary surface between the Lymphoprep and the RPMI1640 culture medium. The cells were washed twice with 10 ml RPMI1640 culture medium to remove the Lymphoprep and then suspended in a RPMI1640 culture medium added with 10% bovine fetal serum (IRVINE SCIENTIFIC), 100 U/ml penicillin and 100 µg/ml streptomycin (hereinafter referred to as cRPMI1640 culture medium). The number of the cells was measured by Tuerk dying, and the cells, after adjustment to 3 × 10^6 cells/ml, were planted in 100 µl/well on a 96-well plate (FALCON). The cells were cultured at 37 °C under 5%CO2 atmosphere for about 5 hours.
Induction of TNF-α production by LPS stimulus
LPS (E.coli 0111:B4, DIFCO), which had been prepared to 10 mg/ml with water and kept at -20, was diluted to 100 µg/ml with cRPMI1640 culture medium and subjected to sterile filtration. The 100 µg/ml LPS was diluted with cRPMI1640 culture medium to prepare 20 ng/ml LPS. A compound to be tested which was dissolved in DMSO at 1,000-fold concentration was diluted to 500-fold with cRPMI1640 culture medium containing 20 ng/ml LPS and added in 100 µl/well to the cells which had been planted on the previously mentioned 96-well plate (final concentration of LPS: 10 ng/ml). For use as the control group, the solutions were made by diluting DMSO of the same volume as in the test compounds with cRPMI1640 culture medium containing 20 ng/ml LPS, and they were added to the cells. These cells were cultured at 37 °C under 5%CO2 atmosphere for 16 hours.
Determination of TNF-α activity (ELISA method)
To the 96-well plate the mouse anti-human TNF-α antibody (prepared to 2 µg/ml with Coating buffer*^1) was added so as to make 100 µl/well and allowed to stand at 4 °C overnight. After 5-times washing with Wash buffer*^2 (300µl/well), the Blocking buffer*^3 was added to the solutions, which were allowed to stand 37 °C for 2 hours. The culture supernatants were diluted up to 5-fold in the plate (supernatant 20 µl being added to 80 µl of cRPMI1640 culture medium). Simultaneously, for using for a calibration curve, a series of dilution of recombinant human TNF-α was prepared arid allowed to stand 37 °C for 1 hour. After 5-times washing with Wash buffer (300 µl /well), biotinylated rabbit anti-human TNF-α antibody (prepared to 0.25 µg/ml with Antibody diluent*^4) was added so as to make 100 µl /well and allowed to stand at 37 °C for 1 hour. After 5-times washing with Wash buffer (300 µl /well), Streptavidin-Horseradish peroxidase(prepared to 1:4000 with Antibody diluent) was added to make 100 µl /well and allowed to stand at 37 °C for 15 minutes. […]

The subject of the next test is IL-4 production. The test can be described thus: IL-4 production inhibiting test in OVA-stimulated spleen cells of immunised mouse (ELISA). The conditions noted are these: 72 h, spleen cells of OVA-immunised BALB/c-mouse, OVA 0.5 mg/ml, 3 days. The protocol:
as §1, §2

Drawing on patent EP1229025A1, “NOVEL QUINAZOLINE DERIVATIVES” (Japan Energy Corporation, priority 1999, dated 2001), this text covers IC50 for 6 compounds.

With `O=[N+]([O-])c1cc2c(NCc3ccc4c(c3)OCO4)ncnc2cc1N1CCNCC1` [Example 31, 4-[3,4-(methylenedioxy)benzylamino]-6-nitro-7-(piperazin-1-yl)quinazoline], the IC50 with IL-5 production stood at 200 nM; in the test with TNF-α production, 80 nM; in the test with IL-4 production, 10 nM.
With `O=[N+]([O-])c1cc2c(NCc3cccs3)ncnc2cc1N1CCNCC1` [Example 48, 6-nitro-7-(piperazin-1-yl)-4-[(2-thienyl)methylamino]quinazoline], the half-maximal inhibitory concentration (IC50) amounted to 900 nM in the test with IL-5 production and 100 nM in the test on IL-4 production.
For `O=[N+]([O-])c1cc2c(NCc3ccccc3F)ncnc2cc1N1CCNCC1` [Example 61, 4-(2-fluorobenzylamino)-6-nitro-7-(piperazin-1-yl)quinazoline], the IC50 in the test with IL-5 production is 2000 nM; with TNF-α production, 300 nM; in the test on IL-4 production it was 200 nM.
Taken in the same sequence, the figures for `O=[N+]([O-])c1cc2c(NCc3cccc(F)c3)ncnc2cc1N1CCNCC1` [Example 62, 4-(3-fluorobenzylamino)-6-nitro-7-(piperazin-1-yl)quinazoline] were 1400 nM, 300 nM and 100 nM.
Taken in the same sequence, the figures for `CCOC(=O)c1ccc(CNc2ncnc3cc(N4CCNCC4)c([N+](=O)[O-])cc23)cc1` [Example 129, 4-[(4-ethoxycarbonyl)benzylamino]-6-nitro-7-(piperazin-1-yl)quinazoline] were 1700 nM, 200 nM and 100 nM.
The matching figures for `CC(C)(C)c1cc(CNc2ncnc3cc(N4CCNCC4)c([N+](=O)[O-])cc23)cc(C(C)(C)C)c1O` [Example 131, 4-[(3,5-di-tert-butyl-4-hydroxy)benzylamino]-6-nitro-7-(piperazin-1-yl)quinazoline]: 1400 nM, 300 nM and 200 nM.
